One block for each compound: values may come before it. Calls of active or inactive are those of the source. No cut-off for these calls is given here.
Columns and labels:
Assay type in all cases: cell-based
Settings in all cases: COS-1
[1] = target: T1, Long-wave-sensitive opsin 1 (Homo sapiens) (UniProt P04000); assay: Inverse agonist activity at human red cone opsin expressed in COS1 cells assessed as transducer activity at 2 mM by radioactive filter binding assay
T1 sequence (whole entry): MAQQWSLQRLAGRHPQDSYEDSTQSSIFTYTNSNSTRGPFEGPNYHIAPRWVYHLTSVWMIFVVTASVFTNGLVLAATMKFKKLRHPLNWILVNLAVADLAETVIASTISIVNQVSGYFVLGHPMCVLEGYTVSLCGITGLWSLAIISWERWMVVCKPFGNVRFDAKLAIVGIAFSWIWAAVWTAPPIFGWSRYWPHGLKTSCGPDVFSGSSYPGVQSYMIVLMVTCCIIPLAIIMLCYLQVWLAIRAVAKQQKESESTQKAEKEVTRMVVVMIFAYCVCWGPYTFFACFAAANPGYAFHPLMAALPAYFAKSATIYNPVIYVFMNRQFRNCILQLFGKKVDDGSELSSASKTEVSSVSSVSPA

[2] = target: T1, Long-wave-sensitive opsin 1 (Homo sapiens); assay: Inverse agonist activity at human red cone opsin expressed in COS1 cells assessed as transducer activity at 20 uM by radioactive filter binding assay
[3] = target: T1, Long-wave-sensitive opsin 1 (Homo sapiens); assay: Agonist activity at human red cone opsin expressed in COS1 cells assessed as activation of transducer at 20 uM by radioactive filter binding assay
[4] = target: T1, Long-wave-sensitive opsin 1 (Homo sapiens); assay: Inverse agonist activity at human red cone opsin expressed in COS1 cells assessed as transducer activity at 200 uM by radioactive filter binding assay

Structure (SMILES): C1CCCCC1
Activity [1]: inactive

Activity [2]: Active
Structure (SMILES): CC1=C(/C=C/C(C)=C\C=C\C=O)C(C)(C)CCC1

Activity [1]: Active
Structure (SMILES): CC1CCCC(C)C1 (stereo not given)

Activity [3]: inactive
Structure (SMILES): CC1=C(/C=C/C(C)=C/C=C/C(C)=C/C=C/C=O)C(C)(C)CCC1

Activity [4]: Active
Structure (SMILES): CC1=C(C=O)C(C)(C)CCC1

— ChEMBL document CHEMBL1949519
